Results reported in paper PMC5294416, “Novel peptides for deciphering structural and signalling functions of E-cadherin in mouse embryonic stem cells” (Scientific Reports, 2017).
Primed or numbered codes have the meaning given here. Ends that are not written are not given here. FITC′ = fluorescein-5(6)-isothiocyanate; Nova linker = not defined here

Columns and labels:
[1] = test system: OCT4 protein in wtD3 mESCs; experiment: Immunofluorescence microscopy analysis of OCT4 protein expression with pathway inhibitors; format: cell-based, mouse; settings: for OCT4 protein expression, inhibitor with vehicle control: wtD3 mESCs, no peptide, after 5 days
Protocol: (§1) Unless otherwise stated, mESC lines were grown on gelatinised tissue culture grade 6-well plates at 37 °C/5% CO2, as previously described. mESCs cells were treated with 10 μM peptide in mESC culture medium which was replenished every 24 h. Inhibition of specific pathways in mESCs was achieved by incubation with 10 μM LY294002 (PI3K inhibitor), PD9805 (MEK inhibitor) and SB431542 (TGFβ1 R inhibitor).
(§2) Monolayer cultured mESCs were fixed in situ in 4% w/v PFA in PBS for 30 minutes at room temperature, washed twice with PBS and blocked with 1% goat serum in 0.1% w/v BSA, 0.1% Triton X-100 in PBS for 30 minutes. Cells were incubated in the appropriate primary antibody in goat blocking buffer for two hours at RT. Cells were washed three times in PBS and incubated in the appropriate Alexa fluor-488 or −546 conjugated secondary antibody at RT for 1 hour in the dark. Cells were washed three times with PBS, mounted in 4′6-diamidino-2-phenylindole (DAPI) (Vector Laboratories) and visualized using a Leica DM6000B fluorescence microscope (Leica Microsystems) and processed using Leica LAS X Core software (Leica Microsystems). Primary antibodies: anti-Nanog, 1:200 dilution (ab80892, Abcam Plc, Cambridge, UK); anti-Oct4, 1:200 dilution (ab19857, Abcam Plc, Cambridge, UK). For immunofluorescence microscopy analysis of fluorescent-tagged peptides, cells were incubated in 500 μM peptide in cell culture medium for 15 minutes, washed twice in ice cold PBS and mounted with Vectorshield containing DAPI. Cells were visualized using a Leica DM6000B fluorescence microscope (Leica Microsystems) and processed using Leica LAS X Core software (Leica Microsystems).
(§3) Images were imported into ImageJ and fluorescence intensity measured using the Analyse > Measure function on areas selected using the rectangular or oval selection icons.

wtD3 and Ecad−/− mESCs = experiment: Binding of fluorescent-tagged peptides to wtD3 versus Ecad−/− mESCs; format: cell-based, mouse; settings: fluorescein-tagged peptide, 500 μM, 15 minutes, 37 °C, immunofluorescence microscopy / flow cytometry
Protocol: D3 and Ecad^−/− mESCs were treated with Epep-F or EpepW2R-F at concentrations of 0 (control), 5, 10, 25, 50 and 500 μM in culture medium as a monolayer on ice. Ice cold conditions were utilised to minimise endocytosis of fluorescent tagged peptide. Cells were harvested using cell dissociation buffer, centrifuged and washed with PBS and fixed in 500 μl 1% w/v paraformaldehyde (PFA) in PBS for analysis using a FACSCalibur (BD Biosciences, California, USA). Viable cells were gated using forward scatter and side scatter and all data shown represents quantification of the fluorescence emitted by this population.
Monolayer cultured mESCs were fixed in situ in 4% w/v PFA in PBS for 30 minutes at room temperature, washed twice with PBS and blocked with 1% goat serum in 0.1% w/v BSA, 0.1% Triton X-100 in PBS for 30 minutes. Cells were incubated in the appropriate primary antibody in goat blocking buffer for two hours at RT. […] Cells were washed three times with PBS, mounted in 4′6-diamidino-2-phenylindole (DAPI) (Vector Laboratories) and visualized using a Leica DM6000B fluorescence microscope (Leica Microsystems) and processed using Leica LAS X Core software (Leica Microsystems). […] Cells were visualized using a Leica DM6000B fluorescence microscope (Leica Microsystems) and processed using Leica LAS X Core software (Leica Microsystems). […]

wtD3 mESCs [2] = experiment: Loss of cell-cell contact, phase contrast microscopy; format: cell-based, mouse; settings: for Effect on cell-cell contact (in words): wtD3 mESCs, 10 μM peptide, 24 h, phase contrast
Protocol: as §1

[3] = molecular target: T1, recombinant mouse E-Cadherin Fc Chimera (Mus musculus, UniProt P09803); experiment: Biacore SPR equilibrium binding analysis (affinity capture); settings: equilibrium analysis using affinity capture on HTE chip, peptide stock in water, average of three runs, running buffer HBS/0.02% Tween/2 mM CaCl2/1 mM MgCl2
T1 construct: purchased R&D Systems
Protocol: Biacore SPR analysis was used to measure the interaction between peptides and recombinant mouse E-Cadherin Fc Chimera (R&D Systems). Analytes were passed over an HTE chip with surface bound His-tagged Recombinant Mouse E-Cadherin Fc Chimera (R&D Systems). The kinetics of interaction, i.e. the rates of complex formation (ka) and dissociation (kd), were determined and Integrin α4β7 protein was used as a control. Analysis was performed by the Biomolecular Analysis Core Facility (The University of Manchester, UK) on a Proteon XPR-36 protein interaction array system (Bio-Rad) using a HTE chip for high capacity His-tagged protein capture (Bio-Rad). Equilibrium analysis runs were performed three times and an average KD was calculated. Running buffer: HBS/0.02%, Tween/2 mM, CaCl2/1 mM MgCl2.

[4] = Water solubility of peptides; format: physicochemical
Protocol: All peptides were synthesised by Severn Biotech Ltd (UK) as a lyophilized powder. Peptides were solubilised to a stock solution of 100 mM in ddH20, unless otherwise stated. Peptides were tagged with a Fluorescin-5(6) molecule at the NH2-terminus, separated by a Nova linker molecule, and assessed for activity prior to use (inhibition of cell-cell contact).

wtD3 mESCs [5] = format: cell-based; settings: 24 h, 10 μM
Text: Cell viability was quantified using an Alexa Fluor 488 Annexin V/Dead Cell Apoptosis Kit (Invitrogen) according to the manufacturer’s instructions.

pERK1/2 in wtD3 mESCs = experiment: Western blot analysis of phosphorylated ERK1/2; format: cell-based, mouse
mESCs = experiment: Cell viability in monolayer culture; format: cell-based, mouse; settings: data not shown
[6] = test system: Nanog, Klf4, Tbx3, Esrrb, Nr0b1, Nr5a2 and Tet1 transcripts in wtD3 mESCs; experiment: qPCR analysis of pluripotency transcript expression; format: cell-based, mouse
Protocol: as §1
Primers for qPCR were designed using the Roche Applied science Universal Probe Library software and BLAST screened for sequence specificity. Only primers producing a single dissociation peak were used. RNA was extracted from mESCs and cDNA at a concentration of 2 ng/μl was used for analysis in a MicroAmp Optical 96-well Reaction Plate (Applied Biosystems) using SYBR green Jumpstart Taq ReadyMix (Applied Biosystems). Primer sequences: 18srRNA Forward (F) […], Reverse (R) […]; ESRRB F-[…], R-[…]; KLF4 F-[…], R-ATGTCCGCCAGGTTGAAG; NANOG F-[…], R-[…]; NR0B1 F-[…], R-[…]; NR5A2 F-[…], R-[…]; TBX3 F-[…], R-[…]; TET1 F-[…], R-[…].

[7] = test system: NANOG protein in wtD3 mESCs; experiment: Immunofluorescence microscopy analysis of NANOG protein expression; format: cell-based, mouse; settings: 96 h / 4 days where stated
Protocol: as §2, with “For immunofluorescence microscopy analysis of fluorescent-tagged peptides, cells were incubated in 500 μM peptide in cell culture medium for 15 minutes, washed twice in ice cold PBS and mounted with Vectorshield containing DAPI.” left out
as §3

[8] = test system: STAT3 phosphorylation in wtD3 mESCs; experiment: Western blot analysis of phosphorylated STAT3; format: cell-based, mouse; settings: wtD3 mESCs vs control treated cells, western blot
Protocol: as §1
Cells were harvested using cell dissociation buffer, centrifuged and washed with PBS prior to lysis using Radioimmunoprecipitation (RIPA) buffer (Sigma) containing protease inhibitor cocktail tablets (1 tablet per 10 ml RIPA buffer) (Roche Applied Science) at a concentration of 2 × 10^7 cell/ml. Lysates were separated by SDS-PAGE and electrotransferred onto nitrocellulose membrane as previously described. The membrane was probed using the appropriate primary antibody with subsequent incubation with HRP-conjugated secondary antibody. The membrane was exposed to an autoradiographic film (Hyperfilm ECL, GE Healthcare, Amersham, UK) for the appropriate time period in an X-ray cassette before the film was manually developed in a dark room using Kodak GBX developer and fixer solutions (Sigma, Dorset, UK). Primary antibodies: anti-α-tubulin, 1:2000 dilution (T9026, Sigma, Dorset, UK); anti-AKT, 1:200 dilution (#9272, Cell Signalling Technology, MA, USA); anti-pAKT (Ser473), 1:200 (#4060S, Cell Signalling Technology, MA, USA); anti-STAT3, 1:200 dilution (SC-482, Santa Cruz Biotechnology Inc, TX, USA); anti-pSTAT3, 1:200 dilution (#9138S, Cell Signalling Technology, MA, USA).

[9] = molecular target: T2, His-tagged Recombinant Mouse E-Cadherin Fc Chimera, P09803; experiment: Biacore SPR equilibrium affinity capture analysis; settings: chain shown with the change
T2 chain: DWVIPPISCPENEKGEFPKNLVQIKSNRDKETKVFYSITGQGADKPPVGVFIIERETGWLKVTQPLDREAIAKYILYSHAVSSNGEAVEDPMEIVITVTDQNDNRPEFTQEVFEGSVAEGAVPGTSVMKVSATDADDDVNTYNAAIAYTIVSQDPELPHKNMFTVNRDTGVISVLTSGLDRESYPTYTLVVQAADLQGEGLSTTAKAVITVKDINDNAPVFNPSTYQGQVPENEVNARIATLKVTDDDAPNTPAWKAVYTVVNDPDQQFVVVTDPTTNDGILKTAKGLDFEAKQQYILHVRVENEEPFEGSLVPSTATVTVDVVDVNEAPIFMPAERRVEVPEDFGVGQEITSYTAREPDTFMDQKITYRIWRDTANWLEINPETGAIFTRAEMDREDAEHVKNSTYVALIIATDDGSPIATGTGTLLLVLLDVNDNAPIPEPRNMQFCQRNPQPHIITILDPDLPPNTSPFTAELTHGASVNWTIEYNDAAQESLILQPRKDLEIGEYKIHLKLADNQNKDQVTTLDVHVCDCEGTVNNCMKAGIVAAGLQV

[10] = molecular target: His-tagged Recombinant Mouse E-Cadherin Fc Chimera (mouse) (UniProt P09803); experiment: SPR; as a1, E-cadherin-Fc captured on the HTE chip; peptide dissolved in 10%v/v DMSO/H2O; EpepP7R at 0.3, 1, 3, 5, 10 μM; equilibrium analysis
[11] = transcript, mESCs, Fig. 6a summary

## Cc1c[nH]c(/C=C2\C(=O)Nc3ccccc32)c1CCC(=O)O [SU5402]
[1]
  OCT4 protein expression, inhibitor with vehicle control: maintained expression of OCT4 protein

## Epep-F: Epep with fluorescein-5(6)-isothiocyanate label conjugated to the NH2-terminus via a Nova linker ({FITC′-Nova linker}-SWELYYPLRANL; reading uncertain)
wtD3 and Ecad−/− mESCs
  Binding of fluorescent-tagged peptide to wtD3 versus Ecad−/− mESCs: preferential binding to wtD3 ESCs
wtD3 mESCs [2]
  Effect on cell-cell contact (in words): loss of cell-cell contact

## SWELAYPLRANL [EpepY5A]
[3]
  Kd: 8.82 µM

## SWELYAPLRANL [EpepY6A]
[3]
  Kd: 21.4 µM

## SWELYYRLRANL-NH2 (C-terminus assumed) [EpepP7R]
[4]; 100 mM stock
  solvent required for complete solubilization: 10%v/v DMSO/H2O
[4]; lyophilized powder, stock in water
  solubility in water: < 100 mM
wtD3 mESCs [2]; mESCs, 10 μM, Fig. 6a summary
  Loss of cell-cell contact (10μM)?: YES
wtD3 mESCs [2]
  Effect on cell-cell contact (in words): Abrogation of E-cadherin mediated cell-cell contact was observed with EpepP7R (Fig. 5c and Figure S1b), although cell dissociation was reduced compared to Epep

## SWALYYPLRANL [EpepE3A]
[3]
  Kd: 6.9 µM

## NC(=O)c1ccc(-c2nc(-c3ccc4c(c3)OCO4)c(-c3ccccn3)[nH]2)cc1 [SB431542]
[1]
  OCT4 protein expression, inhibitor with vehicle control: maintained expression of OCT4 protein

## SWELYYP [EpepΔCtm]
[3]
  Kd: 2.7 µM
wtD3 mESCs [5]
  viable population (lower left box): 59.1%

## SWEAYYPLRANL [EpepL4A]
[3]
  Kd: 3.61 µM

## SRELYYPLRANL [EpepW2R, Epep with the Trp-2 residue replaced with arginine, …]
[1]; peptide-treated wtD3 mESCs plus FGFR1 inhibitor SU5402, after 5 days
  OCT4 protein expression in the presence of SU5402: increased cell death and statistically significant loss of OCT protein expression
pERK1/2 in wtD3 mESCs
  pERK1/2 compared to untreated mESCs: decreased pERK1/2
mESCs
  cell viability in monolayer culture: no significant difference in cell viability
[6]; [11]
  Loss of Nanog: YES
  Loss of Nr0b1: YES
  Loss of Nr5a2: YES
  Loss of TBX3: YES
[6]; wtD3 mESCs, 10 μM peptide, 24 h
  Transcripts with decreased expression compared to control (qPCR): Nanog, Tbx3, Nr0b1 and Nr5a2
[6]; wtD3 mESCs, 24 h treatment
  Transcripts unchanged / not inhibited (qPCR): Klf4 and Esrrb
[7]
  NANOG protein expression: decreased levels of protein
[3]
  KD: did not produce a strong enough response to perform equilibrium analysis
[8]
  Effect on STAT3 phosphorylation (in words): unaffected
wtD3 and Ecad−/− mESCs
  Binding of fluorescent-tagged peptide to wtD3 versus Ecad−/− mESCs: binds specifically to E-cadherin
wtD3 mESCs [2]
  Effect on cell-cell contact (in words): did not induce loss of cell-cell contact

## SAELYYPLRANL [EpepW2A]
[3]
  Kd: 55 µM

## AWELYYPLRANL [Epep (E-cadherin binding peptide H-…-NH2) S1A]
[9]
  Kd: 1.19 µM

## SWELYYRLRANL [EpepP7R]
[10]
  Kd: 3.87 µM
